Where two headings read alike, the source gives them in different places.
Tests used:
[1] = molecular target: T1, HBV core protein (C-terminal truncated core protein, 149 amino acids of the N-terminal assembly domain, BODIPY-FL labelled) (UniProt P03146); experiment: Biochemical capsid assembly assay (fluorescence quenching)
T1 construct: fused on or other part: A single cysteine added after residue 149, at position 150; It carries the BODIPY-FL maleimide label
In short: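 Fluorescence quenching of BODIPY-FL-labelled core dimers (1.0 to 2.0 μM) in 50 mM HEPES pH 7.5; compounds at 8 concentrations, 0.5 log-unit dilutions from top 100, 31.6 or 10 μM, 0.5% DMSO. Assembly started with NaCl to […]; fluorescence (ex 477/em 525 nm) read after 6 min. EC50 by non-linear regression.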

HBV (HepAD38 cells) = experiment: HBV replication assay: determination of HBV DNA from the supernatants of HepAD38 cells; assay type: cell-based; details: Hepatitis B virus, 144 h, HBV DNA in HepAD38 supernatant at day 6, qPCR, read-out: Cell activity
In short: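 HepAD38 cells seeded without tetracycline and treated with half-log compound dilutions; tetracycline-treated wells serve as cell control. On day 6, supernatant HBV DNA was purified and quantified by real-time PCR against plasmid standards; EC50 from non-linear regression of relative copy numbers, three experiments in triplicate.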

[2] = read-out: Assembly activity, assembly started with NaCl, fluorescence read after 6 min
[3] = assembly started with NaCl, fluorescence read after 6 min, read-out: Assembly activity

T1 sequence (P03146 whole entry, the tested form may be a part): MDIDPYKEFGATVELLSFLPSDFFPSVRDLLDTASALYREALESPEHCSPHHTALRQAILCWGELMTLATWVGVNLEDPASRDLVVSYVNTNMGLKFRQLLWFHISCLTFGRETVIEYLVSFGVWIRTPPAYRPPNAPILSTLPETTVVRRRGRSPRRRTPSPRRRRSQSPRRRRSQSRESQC

Row | Structure (SMILES) | IC50 [1, 2] [µM] | EC50 (HBV (HepAD38 cells)) [µM] | IC50 [1, 3] [µM]
1 | CN1C(=O)c2c3c(nn2CC12CC2)CCN(C(=O)c1cc2cc(F)ccc2[nH]1)C3 [Example 79, 12′-(5-fluoro-1H-indole-2-carbonyl)-4′-methyl-4′,7′, 8′,12′-tetraazaspiro[cyclopropane-1,5′-tricyclo[7.4.0.0^2,7]tridecane]-1′,8′-dien-3′-one] | < 5 | < 1 | –
2 | CN(C(=O)c1cnn2c1CN(C(=O)c1cc3c(Cl)c(F)ccc3[nH]1)CC2)C1(c2ccc(C(=O)O)cc2)CC1 [Example 80, 4-{1-[N-methyl-5-(4-chloro-5-fluoro-1H-indole-2-carbonyl)-4H,5H,6H,7H-pyrazolo[1,5-a]pyrazine-3-amido]cyclopropyl}benzoic acid] | – | < 1 | < 5
3 | CN(C(=O)c1cnn2c1CN(C(=O)c1cc3c(Cl)cc(F)cc3[nH]1)CC2)C1(c2ccc(C(=O)O)cc2)CC1 [Example 81, 4-{1-[N-methyl-5-(4-chloro-6-fluoro-1H-indole-2-carbonyl)-4H,5H,6H,7H-pyrazolo[1,5-a]pyrazine-3-amido]cyclopropyl}benzoic acid] | – | < 1 | < 5
4 | Cc1cccc2[nH]c(C(=O)N3CCn4ncc(C(=O)N(C)C5(c6ccc(C(=O)O)cc6)CC5)c4C3)cc12 [Example 82, 4-{1-[N-methyl-5-(4-methyl-1H-indole-2-carbonyl)-4H,5H,6H,7H-pyrazolo[1,5-a]pyrazine-3-amido]cyclopropyl}benzoic acid] | < 5 | < 1 | –
5 | CCc1cccc2[nH]c(C(=O)N3CCn4ncc(C(=O)N(C)C5(c6ccc(C(=O)O)cc6)CC5)c4C3)cc12 [Example 83, 4-{1-[N-methyl-5-(4-ethyl-1H-indole-2-carbonyl)-4H,5H,6H,7H-pyrazolo[1,5-a]pyrazine-3-amido]cyclopropyl}benzoic acid] | – | < 1 | < 5
6 | CN(C(=O)c1cnn2c1CN(C(=O)c1cc3ccccc3[nH]1)CC2)C1(c2cc(C(=O)O)on2)CC1 [Example 84] | < 5 | < 1 | –
7 | CN1C(=O)c2c3c(nn2CC12CC2)CCN(C(=O)c1cc2c(F)c(F)ccc2[nH]1)C3 [Example 85, 12′-(4,5-difluoro-1H-indole-2-carbonyl)-4′-methyl-4′,7′,8′,12′-tetraazaspiro[cyclopropane-1,5′-tricyclo[7.4.0.0^2,7]tridecane]-1′,8′-dien-3′-one] | – | < 1 | < 5
8 | CCN1C(=O)c2c3c(nn2CCC12CC2)CCN(C(=O)c1cc2ccccc2[nH]1)C3 [Example 86, 13′-ethyl-4′-(1H-indole-2-carbonyl)-4′,8′,9′,13′-tetraazaspiro[cyclopropane-1,12′-tricyclo[7.5.0.0^2,7]tetradecane]-1′,7′-dien-14′-one] | – | < 1 | < 5
9 | CN1C(=O)c2c3c(nn2CC12CC2)CCN(C(=O)c1cc2c(Cl)c(F)ccc2[nH]1)C3 [Example 87, 12′-(4-chloro-5-fluoro-1H-indole-2-carbonyl)-4′-methyl-4′,7′,8′,12′-tetraazaspiro[cyclopropane-1,5′-tricyclo[7.4.0.0^2,7]tridecane]-1′,8′-dien-3′-one] | < 5 | < 1 | –
10 | Cc1cc(F)cc2[nH]c(C(=O)N3CCc4nn5c(c4C3)C(=O)N(C)C3(CC3)C5)cc12 [Example 88, 12′-(6-fluoro-4-methyl-1H-indole-2-carbonyl)-4′-methyl-4′,7′,8′,12′-tetraazaspiro[cyclopropane-1,5′-tricyclo[7.4.0.0^2,7]tridecane]-1′,8′-dien-3′-one] | – | < 1 | < 5
11 | O=C(c1cc2ccccc2[nH]1)N1CCc2nn3c(c2C1)C(=O)N(CCO)C1(CC3)CC1 [Example 89, 13′-(2-hydroxyethyl)-4′-(1H-indole-2-carbonyl)-4′, 8′,9′,13′-tetraazaspiro[cyclopropane-1,12′-tricyclo[7.5.0.0^2,7]tetradecane]-1′,7′-dien-14′-one] | – | < 1 | < 5

Source: patent US20220306647A1, “NOVEL INDOLE-2-CARBOXAMIDES ACTIVE AGAINST THE HEPATITUS B VIRUS (HBV)” (AICURIS GMBH & CO. KG, priority 2019, published 2022)
